System: panel of 484 cancer cell lines
Test: PRISM cancer cell line profiling, 5 days
Assay type: cell-based
Parameters: AUC: unit not given beside the values
Procedure: Cancer cell line profiling was performed using the Broad’s PRISM platform. Cell treatment and data analysis were performed as described in Yu et al[42]. Raw Luminex signal was converted to AUC values for each cell line as described. The resulting AUC profile for each compound was modeled against DepMap using the limma package in R[71]. Because hotspot mutation analysis was performed against DepMap, TP53 annotations in Fig. 6c,d are directly from DepMap.

CN1CCN(CCC(=O)Nc2ccc3c(=O)n(CC4(O)CCN(C(=O)[C@H](CCCNC(=O)c5ccc6c(Cl)c7c(nc6c5)CCCC7)Cc5ccccc5)CC4)cnc3c2)CC1 [XL177B]
AUC (MFE319_ENDOMETRIUM): 1.072 | AUC (MG63_BONE): 1.289 | AUC (MHHES1_BONE): 1.021 | AUC (MIAPACA2_PANCREAS): 1.024 | AUC (MKN1_STOMACH): 1.134 | AUC (MKN7_STOMACH): 0.9188 | AUC (MKN45_STOMACH): 0.937 | AUC (MKN74_STOMACH): 1.1384 | AUC (MON_SOFT_TISSUE): 0.868 | AUC (MPP89_PLEURA): 1.104 | AUC (MSTO211H_PLEURA): 1.149 | AUC (NB1_AUTONOMIC_GANGLIA): 0.9815 | AUC (NCIH23_LUNG): 1.159 | AUC (NCIH28_PLEURA): 1.1 | AUC (NCIH226_LUNG): 1 | AUC (NCIH292_LUNG): 1.194 | AUC (NCIH322_LUNG): 1.142 | AUC (NCIH358_LUNG): 0.8695 | AUC (NCIH446_LUNG): 1.097 | AUC (NCIH460_LUNG): 1.182 | AUC (NCIH520_LUNG): 1.115 | AUC (NCIH522_LUNG): 1.144 | AUC (NCIH596_LUNG): 1.0995 | AUC (NCIH650_LUNG): 0.9625 | AUC (NCIH661_LUNG): 1.097 | AUC (NCIH727_LUNG): 0.8802 | AUC (NCIH747_LARGE_INTESTINE): 1.192 | AUC (NCIH838_LUNG): 1.102 | AUC (NCIH841_LUNG): 0.9191 | AUC (NCIH1048_LUNG): 1.221 | AUC (NCIH1299_LUNG): 1.132 | AUC (NCIH1339_LUNG): 1.0827 | AUC (NCIH1355_LUNG): 1 | AUC (NCIH1373_LUNG): 1 | AUC (NCIH1435_LUNG): 1.103 | AUC (NCIH1437_LUNG): 1.1299 | AUC (NCIH1563_LUNG): 1.106 | AUC (NCIH1568_LUNG): 1.0425 | AUC (NCIH1573_LUNG): 1.2267 | AUC (NCIH1581_LUNG): 1 | AUC (NCIH1623_LUNG): 0.9367 | AUC (NCIH1648_LUNG): 0.9797 | AUC (NCIH1650_LUNG): 1 | AUC (NCIH1651_LUNG): 1.093 | AUC (NCIH1693_LUNG): 0.9899 | AUC (NCIH1703_LUNG): 1.014 | AUC (NCIH1792_LUNG): 1.039 | AUC (NCIH1793_LUNG): 1.204 | AUC (NCIH1838_LUNG): 1.05 | AUC (NCIH1915_LUNG): 1.114 | AUC (NCIH1944_LUNG): 1.069 | AUC (NCIH1975_LUNG): 0.971 | AUC (NCIH2009_LUNG): 1.115 | AUC (NCIH2023_LUNG): 1.241 | AUC (NCIH2030_LUNG): 1.104 | AUC (NCIH2052_PLEURA): 1.077 | AUC (NCIH2077_LUNG): 1.134 | AUC (NCIH2087_LUNG): 1.226 | AUC (NCIH2110_LUNG): 1.058 | AUC (NCIH2122_LUNG): 0.9408 | AUC (NCIH2126_LUNG): 1.236 | AUC (NCIH2170_LUNG): 1.101 | AUC (NCIH2172_LUNG): 1.092 | AUC (NCIH2228_LUNG): 1.118 | AUC (NCIH2347_LUNG): 1.188 | AUC (NCIH2444_LUNG): 1.192 | AUC (NCIH2452_PLEURA): 1.126 | AUC (NCIN87_STOMACH): 1.49 | AUC (NUGC3_STOMACH): 1.06 | AUC (NUGC4_STOMACH): 0.9885 | AUC (OAW42_OVARY): 1.241 | AUC (OC314_OVARY): 1.074 | AUC (OC316_OVARY): 1.04 | AUC (OE19_OESOPHAGUS): 1.175 | AUC (OE21_OESOPHAGUS): 1.031 | AUC (OE33_OESOPHAGUS): 1.151 | AUC (ONCODG1_OVARY): 0.9433 | AUC (ONS76_CENTRAL_NERVOUS_SYSTEM): 0.9415 | AUC (OSRC2_KIDNEY): 0.9859 | AUC (OUMS23_LARGE_INTESTINE): 0.9052 | AUC (OV56_OVARY): 1.208 | AUC (OVCAR8_OVARY): 0.9939 | AUC (OVISE_OVARY): 0.9359 | AUC (OVK18_OVARY): 1.044 | AUC (OVSAHO_OVARY): 1.01 | AUC (OVTOKO_OVARY): 1.081 | AUC (PANC1_PANCREAS): 0.9949 | AUC (PANC0203_PANCREAS): 0.9842 | AUC (PANC0327_PANCREAS): 1.28 | AUC (PANC0403_PANCREAS): 1.185 | AUC (PANC0813_PANCREAS): 1.0849 | AUC (PANC1005_PANCREAS): 1.231 | AUC (PATU8902_PANCREAS): 1.2352 | AUC (PATU8988S_PANCREAS): 1.1933 | AUC (PATU8988T_PANCREAS): 1.0752 | AUC (PC3_PROSTATE): 0.9113 | AUC (PC14_LUNG): 1.023 | AUC (PECAPJ15_UPPER_AERODIGESTIVE_TRACT): 0.9342 | AUC (PECAPJ41CLONED2_UPPER_AERODIGESTIVE_TRACT): 0.9621 | AUC (PECAPJ49_UPPER_AERODIGESTIVE_TRACT): 1.067 | AUC (PK1_PANCREAS): 1.024 | AUC (PK45H_PANCREAS): 1.109 | AUC (PK59_PANCREAS): 1.206 | AUC (PLCPRF5_LIVER): 1.091 | AUC (PSN1_PANCREAS): 1.221 | AUC (QGP1_PANCREAS): 0.967 | AUC (RCC10RGB_KIDNEY): 1.114 | AUC (RCM1_LARGE_INTESTINE): 1.243 | AUC (RD_SOFT_TISSUE): 1.111 | AUC (RERFLCAD1_LUNG): 1.059 | AUC (RERFLCAD2_LUNG): 1.0662 | AUC (RERFLCAI_LUNG): 0.9008 | AUC (RERFLCKJ_LUNG): 0.9276 | AUC (RERFLCMS_LUNG): 1.058 | AUC (RH30_SOFT_TISSUE): 1.104 | AUC (RKN_SOFT_TISSUE): 0.8189 | AUC (RKO_LARGE_INTESTINE): 0.9705 | AUC (RL952_ENDOMETRIUM): 1.086 | AUC (RMGI_OVARY): 1.148 | AUC (RMUGS_OVARY): 0.9927 | AUC (RT4_URINARY_TRACT): 1.661

Reference: publication PMC7093416, “Selective USP7 inhibition elicits cancer cell killing through a p53-dependent mechanism” (Scientific Reports, 2020)
